Assay results taken from ChEMBL document CHEMBL1201862, “PubChem BioAssay data set” (2004).
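Cultured in 96-well plates, cells were exposed to test compound for 48 hours across five concentrations. Abbreviation: GI50, concentration required for 50% inhibition of growth.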 Activity calls are given as the source filed them. Rule as the data show it: active = GI50 up to about 1.1 µM and inactive = higher.

Key:
Assay in all cases: growth of human tumour cells (NCI), 48 h
A549 = test system: A549
DU-145 = test system: DU-145
HT-29 = test system: HT-29
MDA-MB-231 = test system: MDA-MB-231
OVCAR-3 = test system: OVCAR-3
OVCAR-4 = test system: OVCAR-4
OVCAR-5 = test system: OVCAR-5
RPMI-8226 = test system: RPMI-8226
RXF 393 = test system: RXF 393
SF-295 = test system: SF-295
SK-MEL-2 = test system: SK-MEL-2
SK-MEL-5 = test system: SK-MEL-5
SN12C = test system: SN12C
SNB-19 = test system: SNB-19
SW-620 = test system: SW-620
T47D = test system: T47D
U-251 = test system: U-251

SMILES | GI50 (A549) | GI50 (DU-145) | GI50 (HT-29) | GI50 (MDA-MB-231) | GI50 (OVCAR-3) | GI50 (OVCAR-4) | GI50 (OVCAR-5) | GI50 (RPMI-8226) | GI50 (RXF 393) | GI50 (SF-295) | GI50 (SK-MEL-2) | GI50 (SK-MEL-5) | GI50 (SN12C) | GI50 (SNB-19) | GI50 (SW-620) | GI50 (T47D) | GI50 (U-251)
CCC(=O)OCc1ccc2oc(=O)c(C(=O)Oc3cncc(Cl)c3)cc2c1 | > 100 µM (inactive) | > 100 µM (inactive) | 76 µM (inactive) | > 100 µM (inactive) | > 100 µM (inactive) | > 100 µM (inactive) | > 100 µM (inactive) | > 100 µM (inactive) | 37.4 µM (inactive) | > 100 µM (inactive) | > 100 µM (inactive) | > 100 µM (inactive) | 42.7 µM (inactive) | > 100 µM (inactive) | > 100 µM (inactive) | 98.6 µM (inactive) | > 100 µM (inactive)
O=C1NC(=O)C(c2c[nH]c3cc(Br)ccc23)=C1c1cnc[nH]1 | 53.1 µM (inactive) | 60.5 µM (inactive) | 26.2 µM (inactive) | 27.9 µM (inactive) | 12.3 µM (inactive) | 32.1 µM (inactive) | > 100 µM (inactive) | 30.8 µM (inactive) | 39 µM (inactive) | 16.3 µM (inactive) | 22.9 µM (inactive) | 11 µM (inactive) | 53.3 µM (inactive) | > 100 µM (inactive) | 55.8 µM (inactive) | 48.8 µM (inactive) | 32.5 µM (inactive)
Cc1ccc2c(c1C)C(=O)/C(=C/c1cccc(C)c1C(=O)O)C2 | 79.6 µM (inactive) | > 100 µM (inactive) | 85.5 µM (inactive) | > 62.7 µM (inactive) | 71.6 µM (inactive) | > 79.6 µM (inactive) | > 100 µM (inactive) | 71.3 µM (inactive) | 63.1 µM (inactive) | > 100 µM (inactive) | > 83.6 µM (inactive) | 38.9 µM (inactive) | > 71.4 µM (inactive) | > 100 µM (inactive) | – | > 100 µM (inactive) | 79.1 µM (inactive)
COC(O)C(=O)c1c2c(cc3c1CC1(Cc4cc5c(cc4C1)CCC5)C3)CCC2 (configuration not stated) | 16.8 µM (inactive) | 19.5 µM (inactive) | 9.33 µM (inactive) | 14.1 µM (inactive) | 15.6 µM (inactive) | 18.5 µM (inactive) | 18.2 µM (inactive) | 8.02 µM (inactive) | 14.8 µM (inactive) | 19.7 µM (inactive) | 16 µM (inactive) | 17.3 µM (inactive) | – | 18.1 µM (inactive) | 16.2 µM (inactive) | 21.9 µM (inactive) | 11.6 µM (inactive)
CCCCCC(C)C[C@H]1CO[C@H](c2ccc[nH]2)N[C@H]1C(=O)OC (some centres not stated) | > 100 µM (inactive) | > 100 µM (inactive) | > 100 µM (inactive) | > 100 µM (inactive) | > 100 µM (inactive) | > 100 µM (inactive) | > 100 µM (inactive) | > 100 µM (inactive) | > 100 µM (inactive) | > 100 µM (inactive) | > 100 µM (inactive) | > 100 µM (inactive) | > 100 µM (inactive) | > 100 µM (inactive) | > 100 µM (inactive) | > 100 µM (inactive) | > 100 µM (inactive)
COC(=O)/C=C1\C(=O)Nc2ccc(Br)cc21 | 3.15 µM (inactive) | 1.86 µM (inactive) | 1.73 µM (inactive) | 2.51 µM (inactive) | 1.46 µM (inactive) | 2.23 µM (inactive) | 1.54 µM (inactive) | 1.41 µM (inactive) | 1.54 µM (inactive) | 2.3 µM (inactive) | 0.493 µM (active) | 1.6 µM (inactive) | 1.62 µM (inactive) | 3.24 µM (inactive) | 1.2 µM (inactive) | 2.16 µM (inactive) | 2.03 µM (inactive)
CN1C(=O)N(C)C2(CCN(CC(CC3OCCO3)c3ccc(F)cc3)CC2)C1=O (configuration not stated) | > 100 µM (inactive) | > 100 µM (inactive) | > 100 µM (inactive) | > 100 µM (inactive) | > 100 µM (inactive) | > 100 µM (inactive) | > 100 µM (inactive) | > 100 µM (inactive) | > 100 µM (inactive) | > 100 µM (inactive) | > 100 µM (inactive) | > 100 µM (inactive) | > 100 µM (inactive) | > 100 µM (inactive) | – | > 100 µM (inactive) | > 100 µM (inactive)
COC(=O)C1=C2SCc3cccc(c3)CSC3=C(C(=O)OC)SC(=C(S2)S1)S3 | > 100 µM (inactive) | > 100 µM (inactive) | – | 24.7 µM (inactive) | > 100 µM (inactive) | > 100 µM (inactive) | – | > 100 µM (inactive) | > 100 µM (inactive) | > 100 µM (inactive) | 32.7 µM (inactive) | > 100 µM (inactive) | 65.9 µM (inactive) | > 100 µM (inactive) | > 100 µM (inactive) | > 100 µM (inactive) | 40.2 µM (inactive)
COC1C(=O)N(SC)C1c1ccccc1Cl (configuration not stated) | > 100 µM (inactive) | > 100 µM (inactive) | 20.3 µM (inactive) | 35.6 µM (inactive) | 19.6 µM (inactive) | 16.7 µM (inactive) | 17.8 µM (inactive) | 19.6 µM (inactive) | > 100 µM (inactive) | > 100 µM (inactive) | > 100 µM (inactive) | 95.5 µM (inactive) | 22.8 µM (inactive) | > 100 µM (inactive) | 21.4 µM (inactive) | 27.4 µM (inactive) | 52.4 µM (inactive)
O=C1CC(=O)NC(NN2C(=O)/C(=C/c3ccc(Cl)c(Cl)c3)N=C2c2ccccc2)=N1 | 27.2 µM (inactive) | 48.2 µM (inactive) | 22.9 µM (inactive) | 17.1 µM (inactive) | 19.1 µM (inactive) | 49.3 µM (inactive) | 46.7 µM (inactive) | 13.6 µM (inactive) | 24.8 µM (inactive) | 32 µM (inactive) | 14.1 µM (inactive) | 16.3 µM (inactive) | 17.3 µM (inactive) | – | 30.4 µM (inactive) | 47.1 µM (inactive) | 23.9 µM (inactive)
Cc1ccc2[nH]c(=O)c(-c3cnc(O)nn3)c(O)c2c1 | 32 µM (inactive) | > 100 µM (inactive) | > 100 µM (inactive) | > 100 µM (inactive) | 58.1 µM (inactive) | 17.8 µM (inactive) | > 100 µM (inactive) | 6.24 µM (inactive) | 17.2 µM (inactive) | 60.7 µM (inactive) | 45 µM (inactive) | 11.8 µM (inactive) | > 100 µM (inactive) | – | > 100 µM (inactive) | 53.2 µM (inactive) | > 100 µM (inactive)
C=CCC(CNC(=O)OCc1ccccc1)OC(=O)OCc1ccccc1 (configuration not stated) | 51.3 µM (inactive) | > 100 µM (inactive) | 36.3 µM (inactive) | > 100 µM (inactive) | 63.2 µM (inactive) | 69.8 µM (inactive) | > 100 µM (inactive) | 26.1 µM (inactive) | > 100 µM (inactive) | 55.5 µM (inactive) | 48.2 µM (inactive) | 22 µM (inactive) | > 100 µM (inactive) | > 100 µM (inactive) | > 100 µM (inactive) | 47.8 µM (inactive) | > 100 µM (inactive)
C[C@]12CC[C@H]3[C@@H](CC=C4C[C@@H](N5CCCC5)CC[C@@]43C)[C@@H]1C/C(=C\c1ccc([N+](=O)[O-])cc1)[C@@H]2O | 17.1 µM (inactive) | 17.3 µM (inactive) | 13.2 µM (inactive) | 16.2 µM (inactive) | 17 µM (inactive) | 12.1 µM (inactive) | – | 16.1 µM (inactive) | 19.9 µM (inactive) | 24.9 µM (inactive) | > 10 µM (inactive) | 15 µM (inactive) | 14.4 µM (inactive) | 24.7 µM (inactive) | 17.9 µM (inactive) | 20.7 µM (inactive) | 12.7 µM (inactive)
Cc1nnc(-n2c(O)cc(=O)n(-c3ccccc3)c2=S)nc1/C=C/c1ccc(N(C)C)cc1 | 8.63 µM (inactive) | 26.1 µM (inactive) | 5 µM (inactive) | > 35.6 µM (inactive) | – | 11.4 µM (inactive) | 27.4 µM (inactive) | 11.2 µM (inactive) | 17.5 µM (inactive) | 12.9 µM (inactive) | 10.9 µM (inactive) | 3.58 µM (inactive) | > 43.5 µM (inactive) | 20.4 µM (inactive) | 12.9 µM (inactive) | 6.62 µM (inactive) | 10.1 µM (inactive)
N#CC1(C#N)C(c2ccccc2)NC23CCCCC2C1(C#N)C(=O)N3 (configuration not stated) | > 100 µM (inactive) | > 100 µM (inactive) | > 100 µM (inactive) | > 100 µM (inactive) | > 100 µM (inactive) | > 100 µM (inactive) | > 100 µM (inactive) | > 100 µM (inactive) | > 100 µM (inactive) | > 100 µM (inactive) | > 100 µM (inactive) | – | > 100 µM (inactive) | > 100 µM (inactive) | > 100 µM (inactive) | > 100 µM (inactive) | > 100 µM (inactive)
O=C1NC(N2CCOCC2)=N/C1=C\c1ccc(Cl)cc1 | > 100 µM (inactive) | > 100 µM (inactive) | > 100 µM (inactive) | > 100 µM (inactive) | > 100 µM (inactive) | > 100 µM (inactive) | > 100 µM (inactive) | > 100 µM (inactive) | > 100 µM (inactive) | > 100 µM (inactive) | > 100 µM (inactive) | – | > 100 µM (inactive) | > 100 µM (inactive) | > 100 µM (inactive) | > 100 µM (inactive) | > 100 µM (inactive)
O=C(/C=C/c1ccccc1)Oc1ccc(C(=O)/C=C/c2ccccc2)cc1 | 25.1 µM (inactive) | 10.3 µM (inactive) | 12.1 µM (inactive) | 13.2 µM (inactive) | 10.3 µM (inactive) | 25.8 µM (inactive) | 13.7 µM (inactive) | 3.25 µM (inactive) | 23.1 µM (inactive) | 12.9 µM (inactive) | 22.4 µM (inactive) | 16.9 µM (inactive) | 10.3 µM (inactive) | 15.1 µM (inactive) | 8.75 µM (inactive) | 11 µM (inactive) | –
